Among the data in US8148391B2 (Cephalon, Inc., priority 2006, dated 2012) are IC50 values, retold here.

For experiment [1], the target named is T1, baculovirus-expressed ALK (Homo sapiens, UniProt Q9UM73).
T1 construct: host or cells: baculovirus expression system
Put plainly: ALK Kinase Assay (ELISA-type, time-resolved fluorescence). The experiment is classed as biochemical. Particulars: 1 μM ATP (Km level); read-out: ALK Activity (ALK Kinase Inhibition, IC50). The method in brief:
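Wells were coated with phospholipase C-γ at 10 μg/mL in Tris-buffered saline. Adding 30 ng/ml enzyme started the reaction, which ran at 37° C for 15 minutes before Eu-N1 PT66 antibody detection. Percent inhibition versus log10 concentration gave IC50 by variable-slope fit.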

In experiment [2] the target is T2, c-Met (cytoplasmic domain) (Homo sapiens, UniProt P08581).
T2 construct: 10 ng/mL c-Met (cytoplasmic domain, Invitrogen Corporation #PV3143); purchased Invitrogen Corporation PV3143
T2 sequence (P08581 956-1390 limits assumed): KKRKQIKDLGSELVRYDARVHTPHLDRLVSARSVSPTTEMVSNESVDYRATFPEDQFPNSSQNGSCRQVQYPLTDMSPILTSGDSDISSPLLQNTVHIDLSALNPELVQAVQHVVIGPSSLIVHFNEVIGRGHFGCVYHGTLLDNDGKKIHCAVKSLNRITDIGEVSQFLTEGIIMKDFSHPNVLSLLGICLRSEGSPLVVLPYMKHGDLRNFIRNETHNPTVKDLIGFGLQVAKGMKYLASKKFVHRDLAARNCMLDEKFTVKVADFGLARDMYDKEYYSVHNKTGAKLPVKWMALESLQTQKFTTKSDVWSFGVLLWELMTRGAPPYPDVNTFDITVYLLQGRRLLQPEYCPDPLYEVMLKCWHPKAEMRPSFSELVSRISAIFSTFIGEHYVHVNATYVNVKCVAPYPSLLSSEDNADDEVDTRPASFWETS
Kind of experiment: c-Met Kinase Assay (same methods as for ALK, with modifications). It counts as biochemical. The note with it: 1 μM ATP (Km level); read-out: cMet Activity (c-Met Kinase Inhibition, IC50). The procedure, abridged:
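IC50 values were fitted by variable-slope sigmoidal regression of percent inhibition against log compound concentration. Phosphorylation was read with Eu-N1 PT66 antibody after a 15 min, 37 °C reaction. The reaction was initiated with 10 ng/mL c-Met cytoplasmic domain on wells coated with 10 μg/mL PLC-γ in TBS.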

T1 sequence (Q9UM73 19-1620): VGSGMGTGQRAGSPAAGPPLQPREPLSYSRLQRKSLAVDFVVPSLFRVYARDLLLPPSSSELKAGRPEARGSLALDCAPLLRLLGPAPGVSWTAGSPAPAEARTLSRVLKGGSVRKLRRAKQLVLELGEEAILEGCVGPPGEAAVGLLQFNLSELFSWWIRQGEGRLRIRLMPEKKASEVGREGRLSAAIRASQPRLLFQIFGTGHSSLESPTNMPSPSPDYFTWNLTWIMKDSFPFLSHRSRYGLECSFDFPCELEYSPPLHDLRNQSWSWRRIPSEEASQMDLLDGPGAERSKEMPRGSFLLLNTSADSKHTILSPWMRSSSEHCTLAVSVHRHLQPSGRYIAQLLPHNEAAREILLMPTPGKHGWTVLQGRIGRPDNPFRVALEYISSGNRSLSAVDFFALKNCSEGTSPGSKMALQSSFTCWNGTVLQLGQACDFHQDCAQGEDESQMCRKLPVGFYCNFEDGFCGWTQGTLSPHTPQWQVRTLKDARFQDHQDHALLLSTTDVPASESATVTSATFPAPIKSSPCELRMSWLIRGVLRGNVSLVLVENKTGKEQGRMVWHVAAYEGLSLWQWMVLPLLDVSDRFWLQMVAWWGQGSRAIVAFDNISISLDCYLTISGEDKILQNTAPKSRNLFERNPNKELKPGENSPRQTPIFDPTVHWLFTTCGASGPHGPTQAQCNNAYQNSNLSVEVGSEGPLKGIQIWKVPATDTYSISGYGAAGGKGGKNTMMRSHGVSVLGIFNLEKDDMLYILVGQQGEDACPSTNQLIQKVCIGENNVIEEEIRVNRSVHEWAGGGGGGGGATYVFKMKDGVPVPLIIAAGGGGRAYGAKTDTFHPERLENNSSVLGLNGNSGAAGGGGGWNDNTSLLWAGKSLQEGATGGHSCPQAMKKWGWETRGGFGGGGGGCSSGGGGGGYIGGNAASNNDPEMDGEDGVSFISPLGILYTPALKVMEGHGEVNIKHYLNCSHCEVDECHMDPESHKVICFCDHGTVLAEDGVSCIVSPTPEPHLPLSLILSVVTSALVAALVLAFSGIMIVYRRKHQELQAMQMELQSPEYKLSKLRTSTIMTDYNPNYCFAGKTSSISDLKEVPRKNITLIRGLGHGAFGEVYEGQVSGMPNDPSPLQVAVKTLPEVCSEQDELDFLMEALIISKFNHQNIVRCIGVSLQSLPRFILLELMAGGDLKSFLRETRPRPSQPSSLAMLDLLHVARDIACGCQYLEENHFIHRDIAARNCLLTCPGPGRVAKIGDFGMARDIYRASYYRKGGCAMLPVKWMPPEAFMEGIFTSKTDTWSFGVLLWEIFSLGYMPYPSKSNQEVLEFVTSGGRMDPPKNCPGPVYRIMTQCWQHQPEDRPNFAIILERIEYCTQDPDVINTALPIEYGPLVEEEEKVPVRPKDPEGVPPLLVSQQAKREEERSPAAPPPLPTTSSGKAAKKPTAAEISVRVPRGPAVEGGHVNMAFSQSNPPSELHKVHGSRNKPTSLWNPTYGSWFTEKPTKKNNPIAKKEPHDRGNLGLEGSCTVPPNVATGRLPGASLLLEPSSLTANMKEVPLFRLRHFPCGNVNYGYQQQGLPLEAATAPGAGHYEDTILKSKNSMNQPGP

As for `COCCN1CCc2cc(Nc3ncc(Cl)c(Nc4ccc(N5CCN(C)CC5)cc4OC)n3)c(OC)cc2CC1` [Example 790, 5-Chloro-N*2*-[8-methoxy-3-(2-methoxy-ethyl)-2,3,4,5-tetrahydro-1H-benzo[d]azepin-7-yl]-N*4*-[2-methoxy-4-(4-methyl-piperazin-1-yl)-phenyl]-pyrimidine-2,4-diamine], the values for the IC50 in experiment [1] and in experiment [2] were below 0.1 µM and above 10 µM, respectively.
Regarding `COc1cc2c(cc1Nc1ncc(Cl)c(Nc3ccc(N4CCN(C)CC4)c(C)c3)n1)CCN(CC(=O)N(C)C)CC2` [Example 792, 2-(7-{5-Chloro-4-[3-methyl-4-(4-methyl-piperazin-1-yl)-phenylamino]-pyrimidin-2-ylamino}-8-methoxy-1,2,4,5-tetrahydro-benzo[d]azepin-3-yl)-N,N-dimethyl-acetamide], the figures for the IC50 in experiment [1] and in experiment [2] were below 0.1 µM and above 10 µM, respectively.
Regarding `COc1cc2c(cc1Nc1ncc(F)c(Nc3ccc(N4CCN(C)CC4)cc3OC)n1)CCN(CC(=O)N(C)C)CC2` [Example 793, 2-(7-{5-Fluoro-4-[2-methoxy-4-(4-methyl-piperazin-1-yl)-phenylamino]-pyrimidin-2-ylamino}-8-methoxy-1,2,4,5-tetrahydro-benzo[d]azepin-3-yl)-N,N-dimethyl-acetamide], the figures for the IC50 in experiment [1] and in experiment [2] were below 0.1 µM and above 10 µM, respectively.
For the compound `COc1cc2c(cc1Nc1ncc(Cl)c(Nc3ccc(N4CC5CC4CO5)cc3OC)n1)CCN(CC(=O)N(C)C)CC2` (stereo not drawn) [Example 794, 2-(7-{5-Chloro-4-[2-methoxy-4-(2-oxa-5-aza-bicyclo[2.2.1]hept-5-yl)-phenylamino]-pyrimidin-2-ylamino}-8-methoxy-1,2,4,5-tetrahydro-benzo[d]azepin-3-yl)-N,N-dimethyl-acetamide], the IC50 is below 0.1 µM in experiment [1] and above 10 µM in experiment [2].
As to `CCN1CC2CC1CN2c1ccc(Nc2nc(Nc3cc4c(cc3OC)CCN(CC(=O)N(C)C)CC4)ncc2Cl)c(OC)c1` (stereo not drawn) [Example 795, 2-(7-{5-Chloro-4-[4-(5-ethyl-2,5-diaza-bicyclo[2.2.1]hept-2-yl)-2-methoxy-phenylamino]-pyrimidin-2-ylamino}-8-methoxy-1,2,4,5-tetrahydro-benzo[d]azepin-3-yl)-N,N-dimethyl-acetamide], the IC50 in experiment [1] is below 0.1 µM; in experiment [2] it was 1 to 10 µM.
As to `COc1cc2c(cc1Nc1ncc(Cl)c(Nc3ccc(N4CCOCC4)c(C)c3)n1)CCN(CC(=O)N(C)C)CC2` [Example 796, 2-{7-[5-Chloro-4-(3-methyl-4-morpholin-4-yl-phenylamino)-pyrimidin-2-ylamino]-8-methoxy-1,2,4,5-tetrahydro-benzo[d]azepin-3-yl}-N,N-dimethyl-acetamide], the IC50 in experiment [1] is below 0.1 µM; in experiment [2] it was above 10 µM.
The matching figures for `CNC(=O)CN1CCc2cc(Nc3ncc(F)c(Nc4ccc(N5CCN(C)CC5)cc4OC)n3)c(OC)cc2CC1` [Example 797, 2-(7-{5-Fluoro-4-[2-methoxy-4-(4-methyl-piperazin-1-yl)-phenylamino]-pyrimidin-2-ylamino}-8-methoxy-1,2,4,5-tetrahydro-benzo[d]azepin-3-yl)-N-methyl-acetamide]: below 0.1 µM and above 10 µM.
The corresponding values for `CNC(=O)CN1CCc2cc(Nc3ncc(Cl)c(Nc4ccc(N5CCN(C)CC5)c(C)c4)n3)c(OC)cc2CC1` [Example 798, 2-(7-{5-Chloro-4-[3-methyl-4-(4-methyl-piperazin-1-yl)-phenylamino]-pyrimidin-2-ylamino}-8-methoxy-1,2,4,5-tetrahydro-benzo[d]azepin-3-yl)-N-methyl-acetamide] are below 0.1 µM and above 10 µM.
Regarding `COc1cc2c(cc1Nc1ncc(Cl)c(Nc3ccc(N4CCOCC4)cc3OC)n1)CCN(CC(N)=O)CC2` [Example 799, 2-{7-[5-Chloro-4-(2-methoxy-4-morpholin-4-yl-phenylamino)-pyrimidin-2-ylamino]-8-methoxy-1,2,4,5-tetrahydro-benzo[d]azepin-3-yl}-acetamide], the IC50 in experiment [1] was below 0.1 µM; in experiment [2] it was above 10 µM.
Regarding `COc1cc2c(cc1Nc1ncc(Cl)c(Nc3ccc(N4CCOCC4)cc3OC)n1)CCN(CC(=O)OC(C)C)CC2` [Example 800, {7-[5-Chloro-4-(2-methoxy-4-morpholin-4-yl-phenylamino)-pyrimidin-2-ylamino]-8-methoxy-1,2,4,5-tetrahydro-benzo[d]azepin-3-yl}-acetic acid isopropyl ester], the IC50 in experiment [1] was below 0.1 µM; in experiment [2] it was above 10 µM.
For the compound `COc1cc2c(cc1Nc1ncc(Cl)c(Nc3ccc(N4CCOCC4)cc3C)n1)CCN(CC(=O)N(C)C)CC2` [Example 801, 2-{7-[5-Chloro-4-(2-methyl-4-morpholin-4-yl-phenylamino)-pyrimidin-2-ylamino]-8-methoxy-1,2,4,5-tetrahydro-benzo[d]azepin-3-yl}-N,N-dimethyl-acetamide], the IC50 in experiment [1] was below 0.1 µM; in experiment [2], above 10 µM.
Turning to `COc1cc2c(cc1Nc1ncc(Cl)c(Nc3ccc(N4CCN(C)CC4)cc3C)n1)CCN(CC(=O)N(C)C)CC2` [Example 802, 2-(7-{5-Chloro-4-[2-methyl-4-(4-methyl-piperazin-1-yl)-phenylamino]-pyrimidin-2-ylamino}-8-methoxy-1,2,4,5-tetrahydro-benzo[d]azepin-3-yl)-N,N-dimethyl-acetamide], the IC50 in experiment [1] was below 0.1 µM; in experiment [2], above 10 µM.
Regarding `COc1cc2c(cc1Nc1ncc(Cl)c(Nc3ccc(N4CCOCC4)c(OC)c3)n1)CCN(CC(=O)N(C)C)CC2` [Example 803, 2-{7-[5-Chloro-4-(3-methoxy-4-morpholin-4-yl-phenylamino)-pyrimidin-2-ylamino]-8-methoxy-1,2,4,5-tetrahydro-benzo[d]azepin-3-yl}-N,N-dimethyl-acetamide], the figures for the half-inhibitory concentration (IC50) in experiment [1] and in experiment [2] were below 0.1 µM and above 10 µM, respectively.
In the case of `COc1cc2c(cc1Nc1ncc(Cl)c(Nc3ccc(N4CCN(C)CC4)c(OC)c3)n1)CCN(CC(=O)N(C)C)CC2` [Example 804, 2-(7-{5-Chloro-4-[3-methoxy-4-(4-methyl-piperazin-1-yl)-phenylamino]-pyrimidin-2-ylamino}-8-methoxy-1,2,4,5-tetrahydro-benzo[d]azepin-3-yl)-N,N-dimethyl-acetamide], the IC50 is below 0.1 µM in experiment [1] and above 10 µM in experiment [2].
Consider `COc1cc2c(cc1Nc1ncc(F)c(Nc3ccc(N4CCN(C)CC4)cc3OC)n1)CCN(CCS(C)(=O)=O)CC2` [Example 805, 5-Fluoro-N*2*-[3-(2-methanesulfonyl-ethyl)-8-methoxy-2,3,4,5-tetrahydro-1H-benzo[d]azepin-7-yl]-N*4*-[2-methoxy-4-(4-methyl-piperazin-1-yl)-phenyl]-pyrimidine-2,4-diamine], for which the figures for the IC50 in experiment [1] and in experiment [2] were below 0.1 µM and above 10 µM, respectively.
As to `COc1cc2c(cc1Nc1ncc(Cl)c(N[C@H]3[C@@H](C(N)=O)[C@@H]4C=C[C@H]3C4)n1)CCN(CC(F)F)CC2` [Example 806, (1S,2S,3R,4R)-3-{5-Chloro-2-[3-(2,2-difluoro-ethyl)-8-methoxy-2,3,4,5-tetrahydro-1H-benzo[d]azepin-7-ylamino]-pyrimidin-4-ylamino}-bicyclo[2.2.1]hept-5-ene-2-carboxylic acid amide], the IC50 in experiment [1] is below 0.1 µM; in experiment [2] it was above 10 µM.
For `COc1cc2c(cc1Nc1ncc(Cl)c(Nc3ccc(N4CCN(C)CC4)cc3OC)n1)CCN(CC(N)=O)CC2` [Example 807, 2-(7-{5-Chloro-4-[2-methoxy-4-(4-methyl-piperazin-1-yl)-phenylamino]-pyrimidin-2-ylamino}-8-methoxy-1,2,4,5-tetrahydro-benzo[d]azepin-3-yl)-acetamide], the IC50 in experiment [1] was below 0.1 µM; in experiment [2] it was above 10 µM.
As for `COc1cc2c(cc1Nc1ncc(F)c(Nc3ccc(N4CCOCC4)cc3OC)n1)CCN(CC(=O)N(C)C)CC2` [Example 808, 2-{7-[5-Fluoro-4-(2-methoxy-4-morpholin-4-yl-phenylamino)-pyrimidin-2-ylamino]-8-methoxy-1,2,4,5-tetrahydro-benzo[d]azepin-3-yl}-N,N-dimethyl-acetamide], the IC50 in experiment [1] is below 0.1 µM; in experiment [2], above 10 µM.
Consider `CNC(=O)CN1CCc2cc(Nc3ncc(F)c(Nc4ccc(N5CCOCC5)cc4OC)n3)c(OC)cc2CC1` [Example 809, 2-{7-[5-Fluoro-4-(2-methoxy-4-morpholin-4-yl-phenylamino)-pyrimidin-2-ylamino]-8-methoxy-1,2,4,5-tetrahydro-benzo[d]azepin-3-yl}-N-methyl-acetamide], for which the IC50 was below 0.1 µM in experiment [1] and above 10 µM in experiment [2].
In the case of `COc1cc2c(cc1Nc1ncc(F)c(Nc3ccc(N4CCOCC4)cc3OC)n1)CCN(CC(N)=O)CC2` [Example 810, 2-{7-[5-Fluoro-4-(2-methoxy-4-morpholin-4-yl-phenylamino)-pyrimidin-2-ylamino]-8-methoxy-1,2,4,5-tetrahydro-benzo[d]azepin-3-yl}-acetamide], the IC50 in experiment [1] was below 0.1 µM; in experiment [2], above 10 µM.
For the compound `COc1cc2c(cc1Nc1ncc(F)c(Nc3ccc(N4CCOCC4)cc3OC)n1)CCN(CC(=O)OC(C)C)CC2` [Example 811, {7-[5-Fluoro-4-(2-methoxy-4-morpholin-4-yl-phenylamino)-pyrimidin-2-ylamino]-8-methoxy-1,2,4,5-tetrahydro-benzo[d]azepin-3-yl}-acetic acid isopropyl ester], the IC50 in experiment [1] was 0.1 to 1 µM; in experiment [2], above 10 µM.
